From patent US20140343000A1 (priority 2011, published 2014)

The compounds below were run on recombinant NL4-3 virus (Renilla luciferase in nef, Gag P373S; NLRluc) in MT-2 cells (assay: whole plant or invertebrate). Conditions: Renilla, NL43, luciferase activity in cells infected for 4-5 days with NLRluc recombinants, serial dilutions of inhibitor; class symbols (key in Table 1); read-out: EC50.
Format: cell-based, HIV
Procedure, shortened: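 Inhibitor potency against the reporter virus comes from reduced luciferase activity in infected MT-2 cells exposed to a dilution series of compound over 4-5 days.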

Q: Which EC50 does the source give for `C=C(C)[C@@H]1CC[C@]2(NC(=O)C(CC3CCCCC3)N3CCS(=O)(=O)CC3)CC[C@]3(C)[C@H](CC[C@@H]4[C@@]5(C)CC=C(c6ccc(C(=O)O)cc6)C(C)(C)[C@@H]5CC[C@]43C)[C@@H]12` (stereo partly drawn) [Example 99, benzoic acid, 4-[(1R,3aS,5aR,5bR,7aR,11aS,11bR,13aR,13bR)-3a-[[3-cyclohexyl-2-(1,1-dioxido-4-thiomorpholinyl)-1-oxopropyl]amino]-2,3,3a,4,5,5a,5b,6,7,7a,8,11,11a,11b,12,13,13a,13b-octadecahydro-5a,5b,8,8,11a-pentamethyl-1-(1-methylethenyl)-1H-cyclopenta[a]chrysen-9-yl]] here?
A: < 100 nM

Q: For `C=C(C)[C@@H]1CC[C@]2(NC(=O)CN3CC[C@H](NC(=O)OC(C)(C)C)C3=O)CC[C@]3(C)[C@H](CC[C@@H]4[C@@]5(C)CC=C(c6ccc(C(=O)O)cc6)C(C)(C)[C@@H]5CC[C@]43C)[C@@H]12` [Example 109, 4-((1R,3aS,5aR,5bR,7aR,11aS,11bR,13aR,13bR)-3a-(2-((S)-3-(tert-butoxycarbonylamino)-2-oxopyrrolidin-1-yl)acetamido)-5a,5b,8,8,11a-pentamethyl-1-(prop-1-en-2-yl)-2,3,3a,4,5,5a,5b,6,7,7a,8,11,11a,11b,12,13,13a,13b-octadecahydro-1H-cyclopenta[a]chrysen-9-yl)benzoic acid], which EC50 is on record?
A: < 100 nM

Q: `C=C(C)[C@@H]1CC[C@]2(NCCN3CCS(=O)(=O)CC3)CC[C@]3(C)[C@H](CC[C@@H]4[C@@]5(C)CC=C(c6ccc(C(=O)O[C@H]7O[C@H](C(=O)OCc8ccccc8)[C@@H](O)[C@H](O)[C@H]7O)cc6)C(C)(C)[C@@H]5CC[C@]43C)[C@@H]12` [Example B7A, (2S,3S,4S,5R,6R)-benzyl 6-((4-((1R,3aS,5aR,5bR,7aR,11aS,11bR,13aR,13bR)-3a-((2-(1,1-dioxidothiomorpholino)ethyl)amino)-5a,5b,8,8,11a-pentamethyl-1-(prop-1-en-2-yl)-2,3,3a,4,5,5a,5b,6,7,7a,8,11,11a,11b,12,13,13a,13b-octadecahydro-1H-cyclopenta[a]chrysen-9-yl)benzoyl)oxy)-3,4,5-trihydroxytetrahydro-2H-pyran-2-carboxylate] was tested. Which EC50 did it give?
A: < 100 nM

Q: Which EC50 does the source give for `C=C(C)[C@@H]1CC[C@]2(NC(=O)NCC3(NC(=O)OC(C)(C)C)CC3)CC[C@]3(C)[C@H](CC[C@@H]4[C@@]5(C)CC=C(c6ccc(C(=O)O)cc6)C(C)(C)[C@@H]5CC[C@]43C)[C@@H]12` [Example 2] here?
A: < 100 nM

Q: `CNC(=O)CN[C@]12CC[C@@H](C(C)C)[C@@H]1[C@H]1CC[C@@H]3[C@@]4(C)CC[C@H](c5ccc(C(=O)O)cc5)C(C)(C)[C@@H]4CC[C@@]3(C)[C@]1(C)CC2` [Example B10, 4-((1S,3aS,5aR,5bR,7aS,9S,11aS,11bR,13aR,13bR)-1-isopropyl-5a,5b,8,8,11a-pentamethyl-3a-((2-(methylamino)-2-oxoethyl)amino)icosahydro-1H-cyclopenta[a]chrysen-9-yl)benzoic acid] was tested. Which EC50 did it give?
A: < 100 nM

Q: How did the EC50 turn out when `CC(C)[C@@H]1CC[C@]2(NCCN(C)C)CC[C@]3(C)[C@H](CC[C@@H]4[C@@]5(C)CC[C@H](c6ccc(C(=O)O)cc6)C(C)(C)[C@@H]5CC[C@]43C)[C@@H]12` [Example B5, 4-((1S,3aS,5aR,5bR,7aS,9S,11aS,11bR,13aR,13bR)-3a-((2-(dimethylamino)ethyl)amino)-1-isopropyl-5a,5b,8,8,11a-pentamethylicosahydro-1H-cyclopenta[a]chrysen-9-yl)benzoic acid] was run?
A: < 100 nM

Q: Which EC50 does the source give for `C=C(C)[C@@H]1CC[C@]2(NC(=O)N3CCN(C)CC3)CC[C@]3(C)[C@H](CC[C@@H]4[C@@]5(C)CC=C(c6ccc(C(=O)O)cc6)C(C)(C)[C@@H]5CC[C@]43C)[C@@H]12` [Example 54, 4-((1R,3aS,5aR,5bR,7aR,11aS,11bR,13aR,13bR)-5a,5b,8,8,11a-pentamethyl-3a-(4-methylpiperazine-1-carboxamido)-1-(prop-1-en-2-yl)-2,3,3a,4,5,5a,5b,6,7,7a,8,11,11a,11b,12,13,13a,13b-octadecahydro-1H-cyclopenta[a]chrysen-9-yl)benzoic acid] here?
A: < 100 nM

Q: For `C=C(C)[C@@H]1CC[C@]2(NC(=O)N(C)CCN(C)C)CC[C@]3(C)[C@H](CC[C@@H]4[C@@]5(C)CC=C(c6ccc(C(=O)O)cc6)C(C)(C)[C@@H]5CC[C@]43C)[C@@H]12` [Example 24, 4-((1R,3aS,5aR,5bR,7aR,11aS,11bR,13aR,13bR)-3a-(3-(2-(dimethylamino)ethyl)-3-methylureido)-5a,5b,8,8,11a-pentamethyl-1-(prop-1-en-2-yl)-2,3,3a,4,5,5a,5b,6,7,7a,8,11,11a,11b,12,13,13a,13b-octadecahydro-1H-cyclopenta[a]chrysen-9-yl)benzoic acid], which EC50 is on record?
A: < 100 nM

Q: How did the EC50 turn out when `C=C(C)[C@@H]1CC[C@]2(NCCN3CCN(C(=O)C4CCC4)CC3)CC[C@]3(C)[C@H](CC[C@@H]4[C@@]5(C)CC=C(c6ccc(C(=O)O)cc6)C(C)(C)[C@@H]5CC[C@]43C)[C@@H]12` [Example B54, 4-((1R,3aS,5aR,5bR,7aR,11aS,11bR,13aR,13bR)-3a-((2-(4-(cyclobutanecarbonyl)piperazin-1-yl)ethyl)amino)-5a,5b,8,8,11a-pentamethyl-1-(prop-1-en-2-yl)-2,3,3a,4,5,5a,5b,6,7,7a,8,11,11a,11b,12,13,13a,13b-octadecahydro-1H-cyclopenta[a]chrysen-9-yl)benzoic acid] was run?
A: < 100 nM

Q: `C=C(C)[C@@H]1CC[C@]2(NC(=O)CNS(=O)(=O)c3cccs3)CC[C@]3(C)[C@H](CC[C@@H]4[C@@]5(C)CC=C(c6ccc(C(=O)O)cc6)C(C)(C)[C@@H]5CC[C@]43C)[C@@H]12` [Example 115, 4-((1R,3aS,5aR,5bR,7aR,11aS,11bR,13aR,13bR)-5a,5b,8,8,11a-pentamethyl-1-(prop-1-en-2-yl)-3a-(2-(thiophene-2-sulfonamido)acetamido)-2,3,3a,4,5,5a,5b,6,7,7a,8,11,11a,11b,12,13,13a,13b-octadecahydro-1H-cyclopenta[a]chrysen-9-yl)benzoic acid] was tested. Which EC50 did it give?
A: < 100 nM

Q: With `C=C(C)[C@@H]1CC[C@]2(NC(=O)NCC(=O)O)CC[C@]3(C)[C@H](CC[C@@H]4[C@@]5(C)CC=C(c6ccc(C(=O)O)cc6)C(C)(C)[C@@H]5CC[C@]43C)[C@@H]12` [Example 16, 4-((1R,3aS,5aR,5bR,7aR,11aS,11bR,13aR,13bR)-3a-(3-(carboxymethyl)ureido)-5a,5b,8,8,11a-pentamethyl-1-(prop-1-en-2-yl)-2,3,3a,4,5,5a,5b,6,7,7a,8,11,11a,11b,12,13,13a,13b-octadecahydro-1H-cyclopenta[a]chrysen-9-yl)benzoic acid] as the compound, how does the EC50 read?
A: < 100 nM

Q: For `C=C(C)[C@@H]1CC[C@]2(NC(=O)NCCCn3ccnc3)CC[C@]3(C)[C@H](CC[C@@H]4[C@@]5(C)CC=C(c6ccc(C(=O)O)cc6)C(C)(C)[C@@H]5CC[C@]43C)[C@@H]12` [Example 14, 4-((1R,3aS,5aR,5bR,7aR,11aS,11bR,13aR,13bR)-3a-(3-(3-(1H-imidazol-1-yl)propyl)ureido)-5a,5b,8,8,11a-pentamethyl-1-(prop-1-en-2-yl)-2,3,3a,4,5,5a,5b,6,7,7a,8,11,11a,11b,12,13,13a,13b-octadecahydro-1H-cyclopenta[a]chrysen-9-yl)benzoic acid], which EC50 is on record?
A: < 100 nM

Q: How did the EC50 turn out when `C=C(C)[C@@H]1CC[C@]2(NC(=O)NCCNC(C)=O)CC[C@]3(C)[C@H](CC[C@@H]4[C@@]5(C)CC=C(c6ccc(C(=O)O)cc6)C(C)(C)[C@@H]5CC[C@]43C)[C@@H]12` [Example 26, 4-((1R,3aS,5aR,5bR,7aR,11aS,11bR,13aR,13bR)-3a-(3-(2-acetamidoethyl)ureido)-5a,5b,8,8,11a-pentamethyl-1-(prop-1-en-2-yl)-2,3,3a,4,5,5a,5b,6,7,7a,8,11,11a,11b,12,13,13a,13b-octadecahydro-1H-cyclopenta[a]chrysen-9-yl)benzoic acid] was run?
A: < 100 nM

Q: For `C=C(C)[C@@H]1CC[C@]2(NC(=O)C3CCCN3S(C)(=O)=O)CC[C@]3(C)[C@H](CC[C@@H]4[C@@]5(C)CC=C(c6ccc(C(=O)O)cc6)C(C)(C)[C@@H]5CC[C@]43C)[C@@H]12` (stereo partly drawn) [Example 113, 4-((1R,3aS,5aR,5bR,7aR,11aS,11bR,13aR,13bR)-5a,5b,8,8,11a-pentamethyl-3a-(1-(methylsulfonyl)pyrrolidine-2-carboxamido)-1-(prop-1-en-2-yl)-2,3,3a,4,5,5a,5b,6,7,7a,8,11,11a,11b,12,13,13a,13b-octadecahydro-1H-cyclopenta[a]chrysen-9-yl)benzoic acid], which EC50 is on record?
A: < 100 nM

Q: `C=C(C)[C@@H]1CC[C@]2(NC(=O)CN3CCN(C(C)C)CC3)CC[C@]3(C)[C@H](CC[C@@H]4[C@@]5(C)CC=C(c6ccc(C(=O)O)cc6)C(C)(C)[C@@H]5CC[C@]43C)[C@@H]12` [Example 96, 4-((1R,3aS,5aR,5bR,7aR,11aS,11bR,13aR,13bR)-3a-(2-(4-isopropylpiperazin-1-yl)acetamido)-5a,5b,8,8,11a-pentamethyl-1-(prop-1-en-2-yl)-2,3,3a,4,5,5a,5b,6,7,7a,8,11,11a,11b,12,13,13a,13b-octadecahydro-1H-cyclopenta[a]chrysen-9-yl)benzoic acid] was tested. Which EC50 did it give?
A: < 100 nM

Same assay, conditions: Renilla, NL43, luciferase activity in cells infected for 4-5 days with NLRluc recombinants, serial dilutions of inhibitor; numeric values; read-out: EC50

Q: For `C=C(C)[C@@H]1CC[C@]2(NC(=O)C(=O)NC3CCCCC3)CC[C@]3(C)[C@H](CC[C@@H]4[C@@]5(C)CC=C(c6ccc(C(=O)O)cc6)C(C)(C)[C@@H]5CC[C@]43C)[C@@H]12` [Example 80, 4-((1R,3aS,5aR,5bR,7aR,11aS,11bR,13aR,13bR)-3a-(2-(cyclohexylamino)-2-oxoacetamido)-5a,5b,8,8,11a-pentamethyl-1-(prop-1-en-2-yl)-2,3,3a,4,5,5a,5b,6,7,7a,8,11,11a,11b,12,13,13a,13b-octadecahydro-1H-cyclopenta[a]chrysen-9-yl)benzoic acid], which EC50 is on record?
A: 110 nM
